In ChEMBL document CHEMBL3774364, “Synthesis of N-cyano-substituted sulfilimine and sulfoximine derivatives of S0859 and their biological evaluation as sodium bicarbonate co-transport inhibitors” (Medchemcomm, 2015):
Active and inactive are the calls of the source. No cut-off for these calls is given here.

How the values were obtained:
[1] = target: T1, Sodium bicarbonate cotransporter 3 (Mus musculus) (UniProt Q8BTY2); assay: Inhibition of NBCn1 in epithelial organoids from mouse ErbB2-overexpressing breast cancer tissue assessed as Na(+) -dependent pHi recovery rate at 30 uM
T1 sequence (whole entry): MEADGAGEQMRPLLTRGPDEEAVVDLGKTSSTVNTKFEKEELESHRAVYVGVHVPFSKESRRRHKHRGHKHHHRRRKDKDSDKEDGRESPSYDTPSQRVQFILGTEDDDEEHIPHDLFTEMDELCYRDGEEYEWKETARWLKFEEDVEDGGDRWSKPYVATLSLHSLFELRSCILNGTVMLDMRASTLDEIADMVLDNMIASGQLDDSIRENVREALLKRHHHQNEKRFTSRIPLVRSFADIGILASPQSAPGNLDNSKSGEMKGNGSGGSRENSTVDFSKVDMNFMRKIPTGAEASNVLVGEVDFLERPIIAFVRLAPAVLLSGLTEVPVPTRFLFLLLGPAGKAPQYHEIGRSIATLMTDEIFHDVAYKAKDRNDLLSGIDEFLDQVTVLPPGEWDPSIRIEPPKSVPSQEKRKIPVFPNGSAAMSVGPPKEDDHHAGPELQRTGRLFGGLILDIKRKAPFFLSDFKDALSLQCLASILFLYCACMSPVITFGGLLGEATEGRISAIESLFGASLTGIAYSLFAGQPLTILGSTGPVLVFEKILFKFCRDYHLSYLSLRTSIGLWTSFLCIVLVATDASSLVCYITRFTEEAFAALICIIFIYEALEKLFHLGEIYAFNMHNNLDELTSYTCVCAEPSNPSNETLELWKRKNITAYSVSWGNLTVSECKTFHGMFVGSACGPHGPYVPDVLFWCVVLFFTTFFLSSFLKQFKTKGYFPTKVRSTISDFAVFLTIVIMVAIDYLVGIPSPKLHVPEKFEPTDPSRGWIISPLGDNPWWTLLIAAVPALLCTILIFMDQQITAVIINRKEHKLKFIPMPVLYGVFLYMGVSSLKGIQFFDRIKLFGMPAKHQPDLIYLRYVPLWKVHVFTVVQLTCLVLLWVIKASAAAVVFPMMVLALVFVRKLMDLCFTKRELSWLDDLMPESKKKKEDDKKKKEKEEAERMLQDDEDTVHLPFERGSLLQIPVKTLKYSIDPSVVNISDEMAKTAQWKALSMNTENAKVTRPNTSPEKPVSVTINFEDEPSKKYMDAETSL

[2] = target: T2, Sodium bicarbonate cotransporter 3 (Homo sapiens) (UniProt Q9Y6M7); assay: Inhibition of NBCn1 in human MCF7 cells assessed as decrease in Na(+) -dependent pHi recovery rate at 30 uM; type: cell-based
T2 sequence (whole entry): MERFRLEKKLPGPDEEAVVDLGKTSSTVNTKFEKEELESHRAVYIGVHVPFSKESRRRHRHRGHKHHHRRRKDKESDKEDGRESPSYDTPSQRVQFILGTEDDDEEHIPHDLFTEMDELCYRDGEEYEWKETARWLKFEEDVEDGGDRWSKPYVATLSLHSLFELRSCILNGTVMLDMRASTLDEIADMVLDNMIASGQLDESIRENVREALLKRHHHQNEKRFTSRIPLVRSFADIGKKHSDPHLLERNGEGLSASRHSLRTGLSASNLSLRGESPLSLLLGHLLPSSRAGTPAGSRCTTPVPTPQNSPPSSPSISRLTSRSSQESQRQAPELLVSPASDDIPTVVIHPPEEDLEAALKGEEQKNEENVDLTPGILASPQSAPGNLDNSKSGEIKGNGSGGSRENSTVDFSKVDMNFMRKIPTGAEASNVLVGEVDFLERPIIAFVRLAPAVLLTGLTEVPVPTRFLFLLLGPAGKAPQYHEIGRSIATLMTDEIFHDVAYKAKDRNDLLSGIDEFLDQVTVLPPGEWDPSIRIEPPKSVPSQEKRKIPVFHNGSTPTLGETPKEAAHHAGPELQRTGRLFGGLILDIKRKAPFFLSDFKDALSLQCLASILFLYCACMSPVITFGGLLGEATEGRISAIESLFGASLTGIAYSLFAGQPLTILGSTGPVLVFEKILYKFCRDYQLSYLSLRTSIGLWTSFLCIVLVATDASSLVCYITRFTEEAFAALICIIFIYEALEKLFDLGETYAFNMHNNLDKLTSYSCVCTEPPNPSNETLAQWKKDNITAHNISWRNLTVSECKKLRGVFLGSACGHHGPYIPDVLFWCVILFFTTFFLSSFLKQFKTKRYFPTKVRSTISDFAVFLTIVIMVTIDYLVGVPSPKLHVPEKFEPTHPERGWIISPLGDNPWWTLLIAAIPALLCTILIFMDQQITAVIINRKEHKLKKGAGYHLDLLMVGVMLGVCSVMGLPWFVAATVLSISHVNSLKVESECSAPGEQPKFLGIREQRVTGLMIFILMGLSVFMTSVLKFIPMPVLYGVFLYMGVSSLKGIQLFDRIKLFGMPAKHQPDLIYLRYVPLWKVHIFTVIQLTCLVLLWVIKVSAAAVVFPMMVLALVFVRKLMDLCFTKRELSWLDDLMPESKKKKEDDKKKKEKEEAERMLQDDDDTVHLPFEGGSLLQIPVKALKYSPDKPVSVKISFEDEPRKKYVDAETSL

inhibition [1]	inhibition [2]	Compound
inactive	45%	Cc1ccc(CN(Cc2ccc(-c3ccccc3S(=O)(=O)NC#N)cc2)C(=O)c2ccccc2Cl)cc1
inactive	inactive	Cc1ccc(CN(Cc2ccc(-c3ccccc3S(C)(=O)=NC#N)cc2)C(=O)c2ccccc2Cl)cc1 (stereo unspecified)
inactive	inactive	Cc1ccc(CN(Cc2ccc(-c3ccccc3/S(C)=N/C#N)cc2)C(=O)c2ccccc2Cl)cc1 (stereo unspecified)
